Assay results taken from PubChem BioAssay (NCI).
Values joined by “and” are separate entries in the source; they are usually repeats but may differ in a detail not shown here. Identical values can stand only once.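 1) Cells in 96-well plates. 2) Compound, 48 h, 5 concentrations. 3) Linear interpolation between surrounding doses. 4) Unreached endpoint = highest concentration. GI50 = concentration required for 50% inhibition of growth. TGI: concentration producing complete growth inhibition.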

Legend:
Assay in all cases: DTP human tumour cell line panel, 48 h
ACHN renal = system: ACHN renal
DU-145 prostate = system: DU-145 prostate
CAKI-1 renal = system: CAKI-1 renal
A498 renal = system: A498 renal
SK-MEL-2 melanoma = system: SK-MEL-2 melanoma
OVCAR-4 ovarian = system: OVCAR-4 ovarian
NCI/ADR-RES ovarian = system: NCI/ADR-RES ovarian
MDA-MB-435 = system: MDA-MB-435
U251 CNS = system: U251 CNS
HCT-15 colon = system: HCT-15 colon

Row | SMILES | TGI (ACHN renal) | TGI (DU-145 prostate) | TGI (CAKI-1 renal) | TGI (A498 renal) | TGI (SK-MEL-2 melanoma) | TGI (OVCAR-4 ovarian) | TGI (NCI/ADR-RES ovarian) | TGI (MDA-MB-435) | TGI (U251 CNS) | TGI (HCT-15 colon) | GI50 (DU-145 prostate)
1 | NC(N)=NS(=O)(=O)c1ccc(NC(=O)c2ccc3nc4ccccc4c(Nc4ccc(S(N)(=O)=O)cc4)c3c2)cc1 | > 100 µM | > 100 µM | > 100 µM | > 100 µM | > 100 µM | > 100 µM | > 100 µM | > 100 µM | > 100 µM | > 100 µM | 
2 | CCO/C(O)=C(/C(=N)N1CCCC1)C(=O)Nc1cccc(C(F)(F)F)c1 | > 100 µM | > 100 µM | > 100 µM | > 100 µM | > 100 µM | > 100 µM | > 100 µM | > 100 µM | > 100 µM | > 100 µM | 
3 | COc1cc(C2S/C(=C/c3ccccc3)C(=O)N2c2ccc(Cl)c(Cl)c2)cc(OC)c1OC (centres undefined) | > 100 µM | > 100 µM | > 100 µM | > 82.4 µM | > 59.6 µM | > 100 µM | > 100 µM | > 90.4 µM | > 100 µM | > 100 µM | 
4 | C/C(O)=C/c1nc2ccc([N+](=O)[O-])cc2nc1/C=C(/C)O | > 100 µM | > 100 µM | > 100 µM | 83.6 µM | 96.8 µM | > 100 µM | > 100 µM | > 100 µM | > 100 µM | > 100 µM | 
5 | Cc1cc(=O)oc2cc(O)ccc12 | > 100 µM | > 100 µM | > 100 µM | > 100 µM | > 100 µM | > 100 µM | > 100 µM | > 100 µM | > 100 µM | > 100 µM | 
6 | NNc1nncn1N | > 100 µM | > 67.3 µM | > 100 µM | > 100 µM | > 100 µM | > 96.7 µM | > 100 µM | 36.3 µM | > 100 µM | > 100 µM | 
7 | CSc1c(C#N)c2n(c3ccccc13)c1ccccc1[n+]2C | 50.9 µM | 92.6 µM | 84.3 µM | 60 µM | 39.1 µM | > 100 µM | 68.4 µM | 79.5 µM | 73.7 µM | > 100 µM | 
8 | Cc1ccc(S(=O)(=O)c2c(O)c3ccccc3n(C)c2=O)cc1 |  | > 100 µM | > 100 µM | > 100 µM | > 100 µM | > 100 µM | > 100 µM | > 100 µM | > 100 µM | > 100 µM | 
9 | CC(=O)c1cc2ccccc2n(O)c1=N | > 100 µM | > 100 µM | > 100 µM | > 100 µM | > 100 µM | > 100 µM | > 100 µM | > 100 µM | > 100 µM | > 100 µM | 
10 | O=C1/C(=C2\Sc3c(ccc(Cl)c3Cl)C2=O)Sc2c1ccc(Cl)c2Cl | > 100 µM | > 100 µM | > 100 µM | > 100 µM | > 100 µM | > 100 µM | > 100 µM | > 100 µM | > 100 µM | > 100 µM | 
11 | [N-]=[N+]=Nc1ccc(CNc2cc(=O)[nH]c(=O)[nH]2)cc1 | > 100 µM | > 100 µM | > 100 µM | > 100 µM | > 100 µM | > 100 µM | > 100 µM | > 80 µM | > 100 µM | > 100 µM | 
12 | CC(=O)N1CCN(C23OC4(N5CCN(C(C)=O)CC5)C5C6CC(C7C6C4C72)C53)CC1 (centres undefined) | > 100 µM | > 100 µM | > 100 µM |  | > 100 µM | > 100 µM | > 100 µM | > 100 µM | > 100 µM | > 100 µM | 
13 | Oc1ccc(CCc2cc(O)cc(O)c2)cc1 | > 100 µM | > 100 µM | > 100 µM | > 100 µM | > 100 µM | > 100 µM | > 100 µM | > 100 µM | > 100 µM | > 100 µM | 
14 | Cc1cc(C)n(CN(Cn2nc(C)cc2C)C2CCCCC2)n1 | 51.9 µM | 62.2 µM | 97.7 µM | > 100 µM | 36.7 µM | 67.9 µM | 42.5 µM | 45.4 µM | 83.6 µM | 42.6 µM | 
15 | CN(C)CCNc1ncnc2nc(-c3ccc4ccccc4c3)[nH]c12 | > 100 µM | > 100 µM | > 100 µM |  | > 100 µM | > 100 µM | > 100 µM | > 100 µM | > 100 µM | > 100 µM | 
16 | CC(=Nc1ccncc1)C(C)=Nc1ccncc1 | 27.5 µM | > 100 µM | 30.4 µM | > 100 µM | 45.1 µM | 27.4 µM | > 100 µM | 97.7 µM | 69.1 µM | 27.5 µM | 
17 | O=C1C(Br)=C(c2ccccc2)S(=O)c2ccccc21 (centres undefined) | 6.53 µM | 27.9 µM | 21.8 µM |  | 33.8 µM | 5.86 µM | > 100 µM | 19.5 µM | 22.8 µM | 14.1 µM | 
18 | Cn1nc(S(N)(=O)=O)s/c1=N/C(N)=S | > 100 µM | > 100 µM | > 100 µM | > 100 µM | > 100 µM | > 100 µM | > 100 µM | > 100 µM | > 100 µM | > 100 µM | 
19 | Cn1cnc2c(sc3nc4ccccc4n32)c1=N | > 100 µM | > 100 µM | > 100 µM | > 100 µM | > 100 µM | > 100 µM | > 100 µM | > 100 µM | > 100 µM | > 100 µM | 
20 | CC(C)OP(=O)(OC(C)C)C(C(C)C)N(C)/C(F)=N/C(F)(F)F (centres undefined) | > 100 µM | > 100 µM | > 100 µM | > 100 µM |  |  | > 100 µM | > 100 µM | > 100 µM | > 100 µM | 
21 | COc1ccc2c(c1)/c(=C/c1ccc(N(C)C)cc1)c1cc(-c3ccccc3)[n+](C)n12 | 5.68 µM | 2.51 µM and 1.84 µM | 5.64 µM | 2.75 µM | 1.61 µM | 2.83 µM | > 100 µM | 1.47 µM | 1.6 µM | 4.02 µM | 0.108 µM
22 | COc1cc(C2SCC(=O)N2c2ccc(Oc3ccc(Cl)cc3)c(Cl)c2)cc(OC)c1OC (centres undefined) | > 100 µM | 27.3 µM | 33.6 µM |  | 32.2 µM | > 100 µM | 30.4 µM | 41.3 µM | > 100 µM | > 100 µM | 
